Experimental data: patent US12263144B2, “Methods of treating IgA nephropathy with thiol-containing molecules” (Accubit LLC—Biotechnology, priority 2020, dated 2025)

Assays:
[1] = system: glomerular rIgA deposition; assay: Passive rat model of IgA deposition (rat rIgA injection), glomerular immunofluorescence; assay type: in vivo, Wistar rats; settings: rats, 250 mg/kg s.c. daily 2 h before rIgA i.v., 5 days, n=3; control 1384±290
Method: To establish the passive rat model, 5 mg/kg.BW recombinant rat rIgA, which contained a fraction of poly-rIgA, were i.v. injected daily to six 14-weeks old male Wistar rats (Charles River Labs, USA) for 5 consecutive days. Every day, three rats in each group had received a subcutaneous dose of either 250 mg/kg cysteamine, or buffer control, two hours before the rIgA injection. Twenty-four hours after the last injection of rIgA, kidneys were collected for immunofluorescence detection of deposits with goat-anti-rat IgA antibody (Cat: STAR111, Biorad laboratory). Similarly, a passive IgA nephrophathy mouse model was established by injecting 35 mg/kg purified human IgA1 in BALB/c mice (Charles River Labs). Two hours before IgA1 injection, six mice in each experimental group had each received a pretreatment dose of either 200 mg/kg cysteamine, or PBS, via subcutaneous injection. Two and a half hours after human IgA1 injection, kidneys were harvested, and specimens were stained with FITC-conjugated anti-human IgA antibody (Cat: 2050-02, SouthernBiotech). Plasma samples were collected at 0.5 h, 1 h and 2 h after IgA1 injection of all mice.
Frozen tissues were sectioned at 4 μm for IgA detection using goat anti-rat IgA (Cat: STAR111, Bio-Rad Laboratories) at 1:100, or anti-human IgA antibody (Cat: 2050-02, […]) at 1:80 dilution. […]

Human rIgA1 (poly-rIgA) = molecular target: T1, Human rIgA1 (poly-rIgA) (Homo sapiens, UniProt P01876); assay: SEC of human rIgA (HEK293-produced) after treatment; assay type: biochemical; settings: human rIgA from HEK293 cells, FIG. 5 B
T1 construct: IL-2 signal peptide (N, cleaved yes); 6xHis (N); made in house; host or cells: HEK293
Method: The overall complex size of IgA aggregates was determined either by size-exclusion chromatography (SEC: Superdex 200 Increase 10/300 by GL Cytiva), or by SDS-PAGE. For evaluating the involvement of intermolecular disulfide connectivity in IgA complexes, IgA samples were treated with either reducing agents, such as DTT, TCEP or reduced glutathione (Sigma), or interventional drugs, such as cysteamine (Sigma), WR-1065 (Sigma) and N-Acetyl-L-cysteine (VWR Chemicals) in phosphate-buffered saline (PBS) pH7.4. Before running on SEC, samples were treated with the drugs at indicated concentrations at 37° C. for one hour.
In the meantime, the SEC column was also equilibrated with PBS supplemented with the reducing agent at the same concentration. For running SEC, 100 μL of the recombinant IgA (concentration varies between 1 mg/mL and 8 mg/mL) or purified native human IgA1 (˜1 mg/mL) was loaded to the column and UV absorption was recorded following elution. Recombinant IgA typically formed two elution peaks: a minor peak of ˜800 kDa poly-rIgA followed by a major peak of ˜170 kDa of monomeric rIgA. The ratios between poly-rIgA and mono-rIgA were calculated as between the corresponding areas under the curve (AUC), and the treatment effect of the thiol agents was judged by the reduction of the poly-rIgA level with a compensatory increase of the mono-rIgA content. […]

T1 sequence (P01876 121-353 isoform P01876-1): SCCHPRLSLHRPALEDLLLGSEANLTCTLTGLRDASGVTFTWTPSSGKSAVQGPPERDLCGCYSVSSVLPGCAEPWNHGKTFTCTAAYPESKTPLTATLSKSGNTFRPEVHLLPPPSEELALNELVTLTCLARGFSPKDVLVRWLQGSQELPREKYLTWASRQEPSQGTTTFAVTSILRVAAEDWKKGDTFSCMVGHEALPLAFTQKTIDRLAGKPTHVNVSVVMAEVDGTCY

SMILES: NCCS [cysteamine]
- quantitation of rIgA deposit in glomeruli (Mean±SEM immunofluorescence intensity) [1]: 523±76
- poly-rIgA level (SEC) (Human rIgA1 (poly-rIgA)): reduction of poly-rIgA levels
